According to PubChem BioAssay (NCI):
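Cultured in 96-well plates, cells were exposed to test compound for 48 hours across five concentrations. GI50 = concentration required for 50% inhibition of growth. TGI denotes the concentration required for complete inhibition of growth.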

Tests used:
Assay in all cases: inhibition of tumour cell growth, NCI panel, 48 h
[1] = tested on: EKVX NSCLC
[2] = tested on: HCC-2998 colon
[3] = tested on: HCT-15 colon
[4] = tested on: K-562 leukemia
[5] = tested on: MDA-MB-435
[6] = tested on: MOLT-4 leukemia
[7] = tested on: NCI-H23 lung
[8] = tested on: NCI/ADR-RES ovarian
[9] = tested on: OVCAR-4 ovarian
[10] = tested on: OVCAR-5 ovarian

Row | Structure (SMILES) | GI50 [1] | TGI [1] | GI50 [2] | TGI [2] | GI50 [3] | TGI [3] | GI50 [4] | TGI [4] | GI50 [5] | TGI [5] | GI50 [6] | TGI [6] | GI50 [7] | TGI [7] | GI50 [8] | TGI [8] | GI50 [9] | TGI [9] | GI50 [10] | TGI [10]
1 | Fc1cccc(-n2ccc(-c3ccccc3)nc2=S)c1 | 17.7 µM | 33.4 µM | 18.1 µM | 33.4 µM | 17.3 µM | 36.1 µM | 43 µM | > 100 µM | 99.7 µM | > 100 µM | 54 µM | > 100 µM | 15 µM | 33.2 µM | 18.3 µM | 41.4 µM | 98.6 µM | > 100 µM | > 94.4 µM | > 100 µM
2 | CCC(=O)Nc1ccc(C)c(-c2ccc(C(=O)NCC3CC3)cc2)c1 | > 25 µM | > 25 µM | > 25 µM | > 25 µM | > 25 µM | > 25 µM | > 25 µM | > 25 µM | > 25 µM | > 25 µM | > 25 µM | > 25 µM | > 25 µM | > 25 µM | > 25 µM | > 25 µM | > 24.1 µM | > 25 µM | > 25 µM | > 25 µM
3 | NS(=O)(=O)NCCNc1nonc1C(=Nc1ccc(F)c(Br)c1)NO | 34.8 µM | > 100 µM | 27.4 µM | 77.5 µM | 39.4 µM | > 100 µM | 35.4 µM | > 100 µM | 32 µM | > 100 µM | 30.8 µM | > 100 µM | 28.9 µM | > 100 µM | > 100 µM | > 100 µM | 32.8 µM | > 100 µM | 69.4 µM | > 100 µM
4 | Cc1cc2c(C(N)=O)c(N)n(-c3c(C)ccc(O)c3C)c2nc1C | 21.8 µM | 98.7 µM | 3.21 µM | 11.7 µM | 5.51 µM | 65.4 µM | 2 µM | > 100 µM | 1.04 µM | 3.33 µM | 2.86 µM | > 100 µM | 1.25 µM | 4.16 µM | 6.48 µM | 32.7 µM | 0.998 µM | 8.03 µM | 3.1 µM | 51.9 µM
5 | O=C1/C(=C/c2ccc(Cl)cc2)CCC/C1=C\c1ccc(Cl)cc1 | > 100 µM | > 100 µM | 1.75 µM | 3.19 µM | 3.39 µM | > 100 µM | 3.61 µM | > 100 µM | 2.78 µM | 18.8 µM | 4.09 µM | > 100 µM | 3.06 µM | > 100 µM | 4.32 µM | > 100 µM | 5.17 µM | > 100 µM | > 100 µM | > 100 µM
6 | CCOC(=O)c1cc(-c2ccccc2)[nH]c1N/N=C/c1ccc(Cl)cc1 | 36 µM | > 100 µM | 54.7 µM | > 100 µM | 49.3 µM | > 100 µM | 28.4 µM | > 100 µM | > 100 µM | > 100 µM | 16.8 µM | > 100 µM | 79.1 µM | > 100 µM | 52.6 µM | > 100 µM | 70.9 µM | > 100 µM | > 100 µM | > 100 µM
7 | N#Cc1c(N)nc(N2CCOCC2)c(C#N)c1-c1ccccn1 | > 100 µM | > 100 µM | > 82 µM | > 100 µM | > 100 µM | > 100 µM | > 100 µM | > 100 µM | > 100 µM | > 100 µM | > 100 µM | > 100 µM | > 100 µM | > 100 µM | > 100 µM | > 100 µM | > 100 µM | > 100 µM | > 100 µM | > 100 µM
8 | O=C1OC(=O)C2CCCC3CCCC1C32 (stereo not given) | – | > 100 µM | – | > 100 µM | – | > 100 µM | – | > 100 µM | – | > 100 µM | – | > 100 µM | – | > 100 µM | – | > 100 µM | – | > 100 µM | – | > 100 µM
9 | O=C(O)c1c(=O)cccc2ssc12 | 1.35 µM | 3.12 µM | 1.8 µM | 3.36 µM | 1.73 µM | 3.52 µM | 2.04 µM | 5.51 µM | 1.93 µM | 3.75 µM | 2.13 µM | 5.11 µM | 1.75 µM | 3.45 µM | 2.4 µM | 5.68 µM | 2.21 µM | 4.87 µM | 1.71 µM | 3.45 µM
10 | COC(=O)c1cc2c3ccccc3[nH]c2c2sccc12 | 4.12 µM | > 100 µM | 19.4 µM | 43.5 µM | 8.9 µM | 94.4 µM | 15.2 µM | > 100 µM | 20.3 µM | > 100 µM | 15.7 µM | > 100 µM | 33.8 µM | > 100 µM | 28.1 µM | > 100 µM | 26.5 µM | 76.9 µM | 23.1 µM | > 100 µM
11 | O=C(NO)[C@@H](Cc1ccccc1)NS(=O)(=O)c1ccc(-c2ccccc2)cc1 | 15.7 µM | > 25 µM | > 25 µM | > 25 µM | > 25 µM | > 25 µM | 10.1 µM | > 25 µM | 13.4 µM | > 25 µM | 9.43 µM | > 25 µM | > 25 µM | > 25 µM | > 25 µM | > 25 µM | > 25 µM | > 25 µM | 7.13 µM | > 25 µM
12 | O=C(Nc1cccc(Cl)c1)c1cccc(NC2=C(Cl)C(=O)N(Cc3ccccc3)C2=O)c1 | > 100 µM | > 100 µM | 19.8 µM | 62.4 µM | 30 µM | > 100 µM | 0.662 µM | 35.5 µM | 25.9 µM | 91.3 µM | 22.2 µM | > 100 µM | > 100 µM | > 100 µM | 89.8 µM | > 100 µM | 68.5 µM | > 100 µM | > 100 µM | > 100 µM
13 | CN(C)CCNC(=O)Cn1cnc2cccc([N+](=O)[O-])c2c1=O | – | > 100 µM | – | > 100 µM | – | > 100 µM | – | > 100 µM | – | > 100 µM | – | > 100 µM | – | > 100 µM | – | > 100 µM | – | > 100 µM | – | > 100 µM
14 | COc1cc(-c2csc(NC(=O)Nc3ccc(C(F)(F)F)cc3)n2)cc(OC)c1OC | 2.15 µM | 10.2 µM | 2.71 µM | 9.34 µM | 1.71 µM | 4.09 µM | 3.04 µM | > 100 µM | 1.71 µM | 3.74 µM | 1.85 µM | 5.46 µM | 2.48 µM | 8.81 µM | 2.12 µM | 6.94 µM | 2.02 µM | 9.07 µM | 2.64 µM | 9.9 µM
